In patent US6458820B1, “Method for preventing or the progression of neuronal damage with pramipexole as a neuroprotective agent” (Pharmacia & Upjohn Company, priority 1994, dated 2002):
Entries after “also recorded” stand apart in the source; their conditions may differ. Structures can show the parent of a compound that is named as a salt.

What was measured:
[1] = tested on: dopaminergic receptors; experiment: Battery of binding assays, dopaminergic receptors
[2] = tested on: adrenergic receptors
[3] = tested on: cerebellar granular cells; experiment: L-dopa toxicity in primary cultures of cerebellar granular cells, viability by 14C-aminoisobutyric acid uptake; format: cell-based, Sprague Dawley rats; settings: for % of control* (viability, radioactivity): mean of triplicates +/- S.D.
Procedure: Primary cultures of cerebellar granular cells were prepared from 8-day-old Sprague Dawley rats (Charles River, Portage, Mich.) as described previously (1). […] Glial cell proliferation was prevented by adding cytosine-arabinofuranoside-monophosphate (Sigma, St. […] Experiments were started after cells were 8 days in vitro (8 DIV). Cells were washed with two ml of serum free growth medium. Concentrations of 100X stock solutions of PPX and the (+) enantiomer in serum free growth medium were made. These were delivered to cells by adding 20 ul to cells in growth medium per well. […] Cells were incubated under the above conditions for 24 hrs. […] Cells were solubilized, following a wash, with 0.5% Triton X-100. The solubilized cells were then counted for radioactivity on a scintillation counter. Data was expressed as the mean of triplicates ±S.D. for each point.

[4] = tested on: serotonergic receptors
[5] = tested on: rat model of cerebral infarction; settings: administered before the event; cited from earlier work
[6] = tested on: gerbil model of global cerebral ischemia; settings: in vivo; cited from earlier work
[7] = tested on: nigrostriatal dopamine neurons
Procedure: We examined histologically retrograde degeneration of the dopaminergic nigrostriatal (NS) tract over 28 days in gerbils subjected to a 10-minute period of forebrain ischemia via bilateral carotid occlusion.
The administration of pramipexole was via an initial dose of 1 mg/kg PO 60 minutes after ischemia and again at the end of day 1 followed by twice daily dosing for the next 26 days.

With `CCCNC1CCc2nc(N)sc2C1.Cl.Cl` (single isomer, unassigned; (+)) [(+) enantiomer, (+)-enantiomer of 2-amino-6-n-propylamino-4,5,6,7-tetrahydrobenzothiazole dihydrochloride] the “binding activity (in words)” value [1] was “less active”, the “binding activity (in words)” value [2] was “inactive” and the “viability measurements versus control cells (in words)” value ([3]; 10 uM compound, L-dopa treated cells) was “equal to control cells not exposed to L-dopa”. The “neuroprotection against L-dopa toxicity (in words)” value ([3]; cerebellar granule cells in culture, dihydrochloride) was “blocked L-dopa toxicity; also recorded: equally as potent and effective compared to pramipexole” and the “binding activity (in words)” value [4] was “inactive”.

With `N[C@@H](Cc1ccc(O)c(O)c1)C(=O)O` [L-dopa, reference compound] the “Toxicity of L-dopa” value ([3]; 100 uM L-dopa, 24 hrs) was 64.8%.

In the case of `CCN(CC)C(=O)N[C@H]1C=C2c3cccc4[nH]cc(c34)C[C@H]2N(C)C1` [Lisuride], the brain edema [5] is given as “reduced” and the survival time [5] is given as “prolonged”.

For `c1cnc(N2CCN(Cc3ccc4c(c3)OCO4)CC2)nc1` [Piribedil], the “functional and biochemical parameters” value [6] is listed as “have an effect”.

In the case of `CCCN[C@H]1CCc2nc(N)sc2C1` [Pramipexole, (−)-enantiomer of 2-amino-6-n-propylamino-4,5,6,7-tetrahydrobenzothiazole-dihydrochloride], the “attenuation of 28-day post-ischemic loss of NS DA neurons” value ([7]; Example 1, 1 mg/kg PO BID beginning at 1 hr after insult, p<0.01 vs vehicle-treated) is reported as 36%, the “increase in nigrostriatal dopamine neurons compared to vehicle” value ([7]; Example 2, twice daily dose of 0.3 mg/kg, threshold effect) is reported as 14% and the “improvement in 28 day post-ischemic dopamine neuronal survival” value ([7]; Example 2, twice daily dose of 1 mg/kg PO, p<0.0001 vs vehicle-treated) is reported as 38%. For the same compound, the “% of control* (viability, radioactivity)” value ([3]; 1 nM compound, 100 uM L-dopa, 24 hrs) was 30.0 +/− 6.5 % of control, the “% of control* (viability, radioactivity)” value ([3]; 10 nM compound, 100 uM L-dopa, 24 hrs) was 39.2 +/− 9.4 % of control and the “% of control* (viability, radioactivity)” value ([3]; 100 nM compound, 100 uM L-dopa, 24 hrs) was 64.8 +/− 4.7 % of control. The “% of control* (viability, radioactivity)” value ([3]; 300 nM compound, 100 uM L-dopa, 24 hrs) was 76.2 +/− 7.3 % of control, the “% of control* (viability, radioactivity)” value ([3]; 1000 nM compound, 100 uM L-dopa, 24 hrs) was 65.5 +/− 14.8 % of control and the “% of control* (viability, radioactivity)” value ([3]; 3000 nM compound, 100 uM L-dopa, 24 hrs) was 84.9 +/− 0.6 % of control. The “% of control* (viability, radioactivity)” value ([3]; 10000 nM compound, 100 uM L-dopa, 24 hrs) was 90.0 +/− 11.5 % of control and the EC50 ([3]; Rattus norvegicus, cerebellar granule cells in culture, L-dopa, read-out: EC50 for blocking L-dopa toxicity) was 300 to 1000 nM.
